Reference: publication PMC10713593, “Staphylococcus aureus functional amyloids catalyze degradation of β-lactam antibiotics” (Nature Communications, 2023)

Key:
[1] = assay type: biochemical; conditions: Aβ42 fibrils 100 µM, nitrocefin 170 µM, A480, two hours (Fig. S2)
a2-PEG17K = system: T1, a2-PEG17K; experiment: Source-data fits for PSMα variants (170 µM): initial rates of nitrocefin hydrolysis (up to 240 µM) by absorbance at 480 nm in 50 mM Hepes pH 7.4 at 20 °C.; assay type: biochemical; conditions: read-out: Km [uM] (AVG, source data sheet 2c,d_titration of nitrocefin)
T1 construct: synthetic peptide, pre-assembled; modification not described beyond the name
Procedure: Nitrocefin, a β-lactam widely used as a surrogate substrate of Penicillin in β-lactamase activity assay, was used as a substrate. NC degradation was monitored for 2 h. Nitrocefin stock solution was dissolved in acetonitrile (20 mM) and then diluted with Hepes buffer (50 mM, pH 7.4) to nitrocefin concentration of 360 µM (further dilutions to lower concentrations were made with the 360 µM NC stock). All nitrocefin samples were kept on ice in cold conditions and any further dilution or mixing was performed in ice-cold conditions to avoid self-hydrolysis background reaction. […] Immediately after mixing the samples, the plate was transferred to 20̊ °C pre-cooled plate reader (Multiskan GO, Thermo Scientific, Waltham, MA) and shaken slowly for 10 s. Then, the absorbance of degraded nitrocefin was measured for 2 h at interval of 20 s at λ = 480 nm. Initial production rates (V0) were calculated by slope of the initial linear range of degraded-nitrocefin production at the first 15 min. […] The initial rate calculations were performed while also subtracting the self-degradation of the substrate, to ensure that this product absorbance is a result of PSMα presence.
The initial rates of degraded-nitrocefin production were calculated from the slopes of the first 15 min of measurement as reported above. […]

[2] = system: Staphylococcus aureus (ATCC 25923); experiment: Staphylococcus aureus sensitivity to nitrocefin in the presence of PSMα (growth curves, OD 600 nm); assay type: cell-based; conditions: nitrocefin 100 µg/mL, LB, 37 °C, 16 h
Procedure: The antimicrobial activity of nitrocefin against Staphylococcus aureus (ATCC 25923) was examined in the presence or absence of pre-assembled PSMα3, while monitoring the growth of the bacterial strain. PSMα3 fibrils were prepared as described above, in aqueous solution, in concentration of 100 µM. The bacterial growth was monitored in bacterial growth curves prepared as following: 3 µL of S. aureus microbial culture (OD = 1) were added to 100 µL LB media (Difco Luria-Bertani medium, BD, France). The bacterial solution was supplemented with 100 µM of the PSMα3 solution (dissolved and preincubated in DIW) or equivalent volume of DIW as a control. Then, aqueous solution of nitrocefin was added to each sample, generating final concentration of 100 µg/mL. As control, the growth curve of S. aureus was examined without any additives. All the samples were incubated while shaking in sterile clear 96-well plates at 37 °C for 16 h, and the absorbance at 600 nm was monitored every 20 min steps by microplate reader (Varioskan Flash, Thermo Scientific, Waltham, MA). Measurements were performed at three biological replicates, each with five technical replicates. The values were plotted in the graph as mean ± SD of representative results.
Figure S15. The effects of PSMα1 and PSMα4 upon nitrocefin in physiological scenarios. […]

β-amyloid fibrils: Amyloid-β sequence 1-42 fibrils, control cross-β amyloid
β-lactam (nitrocefin) degradation by control amyloid [1]: very low β-lactam degradation

O=C(Cc1cccs1)N[C@@H]1C(=O)N2C(C(=O)O)=C(/C=C/c3ccc([N+](=O)[O-])cc3[N+](=O)[O-])CS[C@H]12 [nitrocefin, 3-(2,4-Dinitrostyryl)-(6R,7R)-7-(2-thienylacetamido)-ceph-3-em-4-carboxylic acid]
Km (a2-PEG17K): 2740 µM

O=C(Cc1cccs1)N[C@@H]1C(=O)N2C(C(=O)O)=C(C=Cc3ccc([N+](=O)[O-])cc3[N+](=O)[O-])CS[C@H]12 [nitrocefin, 3-(2,4-Dinitrostyryl)-(6R, 7R)−7-(2-thienylacetamido)-ceph-3-em-4-carboxylic Acid]
effect of nitrocefin on bacterial growth [2]: significantly reduced bacterial proliferation
